Source: ChEMBL document CHEMBL4219268, “Synthesis and evaluation of N-(4-benzylphenyl)piperazines as VGF inducers” (Bioorg Med Chem Lett, 2018)

How the values were obtained:
[1] = Drug metabolism in human liver microsomes assessed as metabolic rate per mg protein at 1 uM measured at 3 to 30 mins by LC-MS/MS analysis; format: ADME, microsome
SH-SY5Y [2] = experiment: Induction of VGF gene expression in human SH-SY5Y cells at 3 uM after 24 hrs by qRT-PCR analysis relative to control; format: functional
CYP3A4 = CYP3A4 (Homo sapiens, UniProt P08684); experiment: Inhibition of CYP3A4 in human liver microsomes using testosterone as substrate assessed as residual activity at 10 uM preincubated for 30 mins followed by substrate addition measured after 10 mins in presence of NADPH by LC-MS/MS analysis; format: ADME; conditions: probe testosterone, read-out: Activity
SH-SY5Y [3] = experiment: Cytoprotective activity against tunicamycin-induced ER stress in human SH-SY5Y cells assessed as cell viability at 3 uM preincubated for 1 hr followed by tunicamycin addition measured after 48 hrs by WST-8 assay (reference value: 45 +/- 6.6%); format: functional; conditions: read-out: Activity
SH-SY5Y [4] = experiment: Cytoprotective activity against tunicamycin-induced ER stress in human SH-SY5Y cells assessed as cell viability at 3 uM preincubated for 1 hr followed by tunicamycin addition measured after 48 hrs by WST-8 assay relative to SUN N8075; format: functional; conditions: read-out: Activity
SH-SY5Y [5] = experiment: Induction of VGF gene expression in human SH-SY5Y cells at 3 uM after 24 hrs by qRT-PCR analysis relative to SUN N8075; format: functional

Sequence of CYP3A4 (P08684 whole entry): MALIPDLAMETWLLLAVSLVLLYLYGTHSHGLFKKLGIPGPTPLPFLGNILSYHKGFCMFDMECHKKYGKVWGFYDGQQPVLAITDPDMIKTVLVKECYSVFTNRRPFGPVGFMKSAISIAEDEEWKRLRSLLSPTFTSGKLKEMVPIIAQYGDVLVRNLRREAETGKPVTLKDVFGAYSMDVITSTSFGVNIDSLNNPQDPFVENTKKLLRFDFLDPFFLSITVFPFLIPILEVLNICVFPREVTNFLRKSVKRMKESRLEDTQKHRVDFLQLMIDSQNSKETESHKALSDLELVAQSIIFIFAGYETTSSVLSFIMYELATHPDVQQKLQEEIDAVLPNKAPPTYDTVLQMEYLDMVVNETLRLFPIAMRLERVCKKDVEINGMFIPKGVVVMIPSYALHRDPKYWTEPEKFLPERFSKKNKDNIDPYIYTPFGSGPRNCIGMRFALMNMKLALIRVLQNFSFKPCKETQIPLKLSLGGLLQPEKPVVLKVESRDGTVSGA

CS(=O)(=O)O.CS(=O)(=O)O.Cc1cc(OCC(O)CN2CCN(c3ccc(Cc4ccc(F)cc4)cc3)CC2)c(C)c(C)c1N (stereo unspecified)
Drug metabolism [1]: 153 pmol/min | fold change (FC) (SH-SY5Y [2]): 5.1 | activity at 10 min, 10 µM (CYP3A4): 57% | viability at 3 µM (SH-SY5Y [3]): 82%

Cc1cc(S(N)(=O)=O)ccc1OCC(F)CN1CCN(c2ccc(Cc3ccc(F)cc3)cc2)CC1 (stereo unspecified)
viability at 3 µM (SH-SY5Y [4]): 105% | Drug metabolism [1]: 17 pmol/min | Activity (SH-SY5Y [5]): 114% | activity at 10 min, 10 µM (CYP3A4): 108%

NC(=O)c1ccc(OCC(F)CN2CCN(c3ccc(Cc4ccc(F)cc4)cc3)CC2)cc1 (stereo unspecified)
viability at 3 µM (SH-SY5Y [4]): 21% | Drug metabolism [1]: 34 pmol/min | Activity (SH-SY5Y [5]): 20% | activity at 10 min, 10 µM (CYP3A4): 76%

Cl.Cl.Cl.Fc1ccc(Cc2ccc(N3CCN(CC(F)(F)COc4ccc5ncccc5c4)CC3)cc2)cc1
viability at 3 µM (SH-SY5Y [4]): 67% | Drug metabolism [1]: 34 pmol/min | Activity (SH-SY5Y [5]): 68% | activity at 10 min, 10 µM (CYP3A4): 93%

Cl.Cl.Cl.Fc1ccc(Cc2ccc(N3CCN(CC(F)COc4ccncc4)CC3)cc2)cc1 (stereo unspecified)
viability at 3 µM (SH-SY5Y [4]): 13% | Drug metabolism [1]: < 10 pmol/min | Activity (SH-SY5Y [5]): 13% | activity at 10 min, 10 µM (CYP3A4): 101%

Cc1cc(OCC(F)CN2CCN(c3ccc(Cc4ccc(F)cc4)cc3)CC2)cc(C)n1.Cl.Cl.Cl (stereo unspecified)
viability at 3 µM (SH-SY5Y [4]): 82% | Drug metabolism [1]: 41 pmol/min | Activity (SH-SY5Y [5]): 79% | activity at 10 min, 10 µM (CYP3A4): 67%

Cl.Fc1ccc(Cc2ccc(N3CCN(CCCOc4ccc5ncccc5c4)CC3)cc2)cc1
viability at 3 µM (SH-SY5Y [4]): 75% | Drug metabolism [1]: 47 pmol/min | Activity (SH-SY5Y [5]): 52% | activity at 10 min, 10 µM (CYP3A4): 94%

OC(COc1ccc2ncccc2c1)CN1CCN(c2ccc(Cc3ccc(F)cc3)cc2)CC1 (stereo unspecified)
viability at 3 µM (SH-SY5Y [4]): 64% | Drug metabolism [1]: 122 pmol/min | Activity (SH-SY5Y [5]): 36% | activity at 10 min, 10 µM (CYP3A4): 70%

O=C1CCc2cc(OCC(O)CN3CCN(c4ccc(Cc5ccc(F)cc5)cc4)CC3)ccc2N1 (stereo unspecified)
viability at 3 µM (SH-SY5Y [4]): 33% | Drug metabolism [1]: 27 pmol/min | Activity (SH-SY5Y [5]): 32% | activity at 10 min, 10 µM (CYP3A4): 88%

Cc1cc(OC[C@@H](F)CN2CCN(c3ccc(Cc4ccc(F)cc4)cc3)CC2)cc(C)n1.Cl
viability at 3 µM (SH-SY5Y [4]): 96% | Drug metabolism [1]: 37 pmol/min | Activity (SH-SY5Y [5]): 68% | activity at 10 min, 10 µM (CYP3A4): 80%

Cc1cc(OC[C@H](F)CN2CCN(c3ccc(Cc4ccc(F)cc4)cc3)CC2)cc(C)n1.Cl
viability at 3 µM (SH-SY5Y [4]): 93% | Drug metabolism [1]: 71 pmol/min | Activity (SH-SY5Y [5]): 78% | activity at 10 min, 10 µM (CYP3A4): 83%

OC(COc1ccc2[nH]ccc2c1)CN1CCN(c2ccc(Cc3ccc(F)cc3)cc2)CC1 (stereo unspecified)
viability at 3 µM (SH-SY5Y [4]): 43% | Drug metabolism [1]: 79 pmol/min | Activity (SH-SY5Y [5]): 30% | activity at 10 min, 10 µM (CYP3A4): 59%

Cc1cc(OCC(F)CN2CCN(c3ccc(Cc4ccc(F)cc4)cc3)CC2)c(C)c(C)c1N.Cl.Cl.Cl (stereo unspecified)
viability at 3 µM (SH-SY5Y [4]): 94% | Drug metabolism [1]: 106 pmol/min | Activity (SH-SY5Y [5]): 126% | activity at 10 min, 10 µM (CYP3A4): 75%

Cl.OC(COc1ccccc1)CN1CCN(c2ccc(Cc3ccc(F)cc3)cc2)CC1 (stereo unspecified)
viability at 3 µM (SH-SY5Y [4]): 43% | Drug metabolism [1]: 28 pmol/min | Activity (SH-SY5Y [5]): 8%

NS(=O)(=O)c1ccc(OCC(F)CN2CCN(c3ccc(Cc4ccc(F)cc4)cc3)CC2)cc1 (stereo unspecified)
viability at 3 µM (SH-SY5Y [4]): 88% | Drug metabolism [1]: 12 pmol/min | Activity (SH-SY5Y [5]): 71% | activity at 10 min, 10 µM (CYP3A4): 99%

Cc1cc(C)c(C)c(OCC(F)CN2CCN(c3ccc(Cc4ccc(F)cc4)cc3)CC2)c1.Cl.Cl (stereo unspecified)
viability at 3 µM (SH-SY5Y [4]): 60% | Drug metabolism [1]: 25 pmol/min | Activity (SH-SY5Y [5]): 75% | activity at 10 min, 10 µM (CYP3A4): 107%

Cc1cc(S(N)(=O)=O)c(C)c(C)c1OCC(F)CN1CCN(c2ccc(Cc3ccc(F)cc3)cc2)CC1 (stereo unspecified)
viability at 3 µM (SH-SY5Y [4]): 106% | Drug metabolism [1]: 32 pmol/min | Activity (SH-SY5Y [5]): 172% | activity at 10 min, 10 µM (CYP3A4): 92%

Cl.Cl.Cl.Fc1ccc(Cc2ccc(N3CCN(CC(F)COc4ccc5ncccc5c4)CC3)cc2)cc1 (stereo unspecified)
viability at 3 µM (SH-SY5Y [4]): 89% | Drug metabolism [1]: 79 pmol/min | Activity (SH-SY5Y [5]): 77% | activity at 10 min, 10 µM (CYP3A4): 82%
